{"source": "patent US11725038B2", "about": "(priority 2007, dated 2023)", "key": {"[1]": {"target": "T1, mutant (M287L) mouse glycine α1 receptor (Mus musculus, UniProt Q64018, M315L)", "T1 sequence (Q64018 29-457 M315L)": "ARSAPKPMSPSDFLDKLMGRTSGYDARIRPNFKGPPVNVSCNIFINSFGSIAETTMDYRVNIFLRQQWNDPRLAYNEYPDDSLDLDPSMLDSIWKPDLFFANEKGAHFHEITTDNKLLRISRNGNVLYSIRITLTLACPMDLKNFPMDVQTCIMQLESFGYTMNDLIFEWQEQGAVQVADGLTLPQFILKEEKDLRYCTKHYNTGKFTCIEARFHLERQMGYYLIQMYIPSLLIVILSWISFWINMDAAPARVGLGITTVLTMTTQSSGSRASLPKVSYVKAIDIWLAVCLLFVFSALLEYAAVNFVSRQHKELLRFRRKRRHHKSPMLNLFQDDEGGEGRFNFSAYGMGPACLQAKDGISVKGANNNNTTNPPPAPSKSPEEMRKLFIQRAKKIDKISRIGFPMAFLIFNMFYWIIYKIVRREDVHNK", "conditions": "M287L mutation versus wild-type; cited from earlier work"}, "[2]": {"target": "T2, vHGlyRα1 infected HEK 293T cells (Homo sapiens, UniProt P23415)", "T2 construct": "expressed in transfected cells; host or cells: HEK 293T cells infected with replication-defective HSV vector vHGlyRα1 (HCMV promoter), MOI 10", "T2 sequence (P23415 29-457)": "T1 sequence (Q64018 29-457 M315L) with L287M, D334E, G337A, N368S, K429Q", "assay": "glycine-mediated whole-cell currents, voltage-clamp recording", "format": "cell-based", "conditions": "for mean peak current: 24 hours post-infection, MOI 10; for percent desensitization: 100×(1−ISS/Ipeak)", "description": "(§1) Human embryonic kidney (HEK) 293T cells were maintained as previously described (Qian et al., J. Physiol., 562, 319-31 (2005)). For recordings, HEK 293T cells were plated onto glass coverslips pretreated with poly-D-lysine (0.1 mg/ml) and rat-tail collagen (0.1 mg/ml; BD Biosciences, San Jose, Calif.) in 35 mm culture dishes at 1-2×10^5 cells per dish. 24 hours after plating, the cells were infected with the GlyR-HSV construct. For infections the growth medium was removed, the cells were washed twice with serum free growth medium, and vHGlyRα1 was added at a multiplicity of infection (MOI) of 10. The cells were then incubated at 37° C. for 1 hour. Following incubation, 1.5 ml of growth medium (with serum) was added and the cells were incubated for an additional 24 hours at 37° C. Recordings were then performed 24 hours post-infection at room temperature. Glycine-mediated whole-cell currents were recorded with an Axopatch 200 amplifier (Molecular Devices, Union City, Calif.) in voltage-clamp mode. Solutions were delivered via an in-house fabricated fast perfusion system (Qian et al., J. Physiol., 538, 65-77 (2002)). The external solution contains (in mM): 140 NaCl, 5 KCl, 2 CaCl2), 1 MgCl2, and 10 HEPES; pH is 7.2+0.05, adjusted with NaOH and osmolality 290+10 adjusted with sucrose as needed. The internal solution contains (in mM): 140 CsCl, 1 CaCl2), 1 MgCl2, 2 MgATP, 10 HEPES, and 10 EGTA; pH is 7.3+0.05, adjusted with CsOH and osmolality 300+0.05. Data were recorded with a Digidata 1322A digitizer under the control of pClamp 9.2 software (Molecular Devices) and all analyses were performed with Clampfit 9.2 (Molecular Devices) or Origin 7.0 (OriginLab, Northampton, Mass.). Percent desensitization was measured as 100×(1−ISS/Ipeak), where ISS and IPeak are the amplitudes of current at steady state and peak, respectively."}, "[3]": {"tested_on": "uninfected HEK 293T cells", "conditions": "uninfected HEK 293T cells (N=4)", "description": "as §1, with “Solutions were delivered via an in-house fabricated fast perfusion system (Qian et al., J. Physiol., 538, 65-77 (2002)). The external solution contains (in mM): 140 NaCl, 5 KCl, 2 CaCl2), 1 MgCl2, and 10 HEPES; pH is 7.2+0.05, adjusted with NaOH and osmolality 290+10 adjusted with sucrose as needed. The internal solution contains (in mM): 140 CsCl, 1 CaCl2), 1 MgCl2, 2 MgATP, 10 HEPES, and 10 EGTA; pH is 7.3+0.05, adjusted with CsOH and osmolality 300+0.05.” left out"}, "[4]": {"tested_on": "formalin-induced nociceptive behavior", "assay": "rat formalin model of pain", "format": "in vivo", "quoted_text": "For in vivo studies, rats were subcutaneously injected with vHGlyRα1 or vHG, a control vector without al GlyR, into the plantar surface of the right hind foot. Analgesic effects of viral injections were assessed one week later by subcutaneous injection of formalin.\nSpecifically, 3-month-old male Sprague-Dawley rats (225-250 g) were injected with 200 μl (1×10^8 plaque forming units) of either vHGlyRα1 or vHG into the plantar surface of the right hind foot. One week later the analgesic properties of the vectors was assessed by subcutaneously injecting 50 μl of 2.5% formalin into the right hind foot and assessing pain-related behaviors as previously described (Goss et al., Gene Ther., 8, 551-6 (2001)). […] The beginning of second phase pain varied between animals from 20 to 40 minutes; this variation was independent of the vector used."}, "[5]": {"conditions": "higher glycine concentration (1 mM)"}, "[6]": {"conditions": "lower glycine concentration (50 uM)"}}, "note": "Where a chain is given by its changes, count along the chain named.", "data": [{"compound": "FC(F)OC(F)(F)C(F)Cl", "note": "(stereo not shown) [enflurane]", "values": [{"measurement": "sensitivity of the receptor to the volatile anesthetic", "setting": "[1]", "value": "greatly enhanced sensitivity"}]}, {"compound": "NCC(=O)O", "note": "[glycine]", "values": [{"measurement": "mean peak current", "setting": "[2]; 50 uM glycine", "value": "−3.57+0.59 nA"}, {"measurement": "mean peak current", "setting": "[2]; 1 mM glycine", "value": "−9.25+1.47 nA"}, {"measurement": "10-90% rise time", "setting": "[2]; [5]", "value": "11.4 ± 1.0", "unit": "ms"}, {"measurement": "percent desensitization", "setting": "[2]; [5]", "value": "89.8+1.1%"}, {"measurement": "10-90% rise time", "setting": "[2]; [6]", "value": "265.2 ± 79.1", "unit": "ms"}, {"measurement": "percent desensitization", "setting": "[2]; [6]", "value": "73.4+7.3%"}, {"measurement": "current response to application of glycine", "setting": "[3]", "value": "failed to elicit a current response"}, {"measurement": "nociceptive behavior following glycine application", "setting": "[4]; vHG transfected animals (control vector)", "value": "small, transient, non-significant dip"}, {"measurement": "second phase pain following injection of glycine", "setting": "[4]; vHGlyRα1-infected animals, 50 μl of 100 mM glycine at the 30 minute time point", "value": "significantly reduced"}]}]}
